Consider two molecules from US9834581B2, “Cell penetrating peptides for intracellular delivery of molecules” (AADIGEN, LLC, priority 2012, dated 2017).

*1 amine or outer side, *2 acyl side, *3 side chain or, on linkers, in order; H or OH if unused. Where a SMILES comes first, the peptide text is derived from it. [ ]: non-standard residue; d: D form. Cysteamide = C(CS[*:3])N[*:1]; βAla = NCCC(=O)O

The nature of test [1]: Fluorescence titration of VEPEP-4 binding to small molecule cargo. The method, then:
(§1) Fluorescence experiments were performed on a PTI spectrofluorimeter at 25° C. in a NaCl 154 mM buffer. Intrinsic Trp-fluorescence of VEPEP-4 was excited at 290 nm and emission spectrum was recorded between 310 and 400 nm, with a spectral band-pass of 2 and 8 nm for excitation and emission, respectively. FITC-fluorescence of labelled-peptide was excited at 492 nm and emission recorded between 500 and 580 nm. For VEPEP-4/peptide interaction, 0.5 μM of FITC-labelled peptide was titrated by increasing concentrations of VEPEP-4. All measurements were corrected for the dilution and curve fitting were performed by using Grafit software (Erithacus).
VEPEP-4 peptides also form stable particles with small aromatic molecules including daunomycin, Paclitaxel, doxorubicin, porphyrin and charged molecules including nucleotide, nucleoside and peptide-analogue of nucleic acids or fluorescent dyes. The dissociation constant for small hydrophobic molecule ranges between 0.05 to 2 μM, depending on the nature of the dyes and of the peptides.
Binding of small molecule cargoes has been investigated in detail depending on the nature of the SMH. Several hydrophobic and charges molecules have been use (Daunomycin, Paclitaxel, doxorubicin, porphyrin) and charged molecules (nucleotide, nucleoside and fluorescent dyes).

The subject of a further test is HEK2. Nature of the test: cells. The format is cell-based. The method, then: (§2) Adherent HS68 fibroblasts, HeLa, PC3, CEM-SS, U20S, MCF-7, and HEK2 cell lines (from American Type Culture Collection (ATCC)), as well as MEF and PBMC, were cultured in Dulbecco's Modified Eagle's Medium supplemented with 2 mM glutamine, 1% antibiotics (streptomycin 10,000 μg/ml, penicillin, 10,000 IU/ml) and 10% (w/v) foetal calf serum (FCS), at 37° C. in a humidified atmosphere containing 5% CO2. Stock solutions of VEPEP-4/peptide particles were prepared by complexing 1 μM peptide with VEPEP-4 peptides at a molar ratio of 1/20 for 30 min at 37° C. Lower concentrations of VEPEP-4-carrier/peptide (from 500 nM to 1 μM) were obtained by serial dilution of the stock complexes in PBS, in order to preserve the same VEPEP-4-carrier/peptide ratio. 150,000 cells seeded in a 35 mm dish the day prior transfection, were grown to 60% confluence and overlaid with 200 μl of preformed complexes, incubated for 3-5 min, then 400 μl of DMEM were added. After 30 min. incubation at 37° C., 1 ml of fresh DMEM containing 16% foetal calf serum (FCS) was added in order to reach a final FCS concentration of 10%, without removing the overlay of VEPEP-4/peptide complexes. Cells were returned to the incubator for 24 hrs. For CDK2 derived peptides cell proliferation was monitored after 24 and 48 hrs. For peptide-targeting integrase, HIV proliferation was analyzed on activated PBMC cells after 3 and 5 days. Data reported are an average of 3 or 4 distinct experiments.
(§3) VEPEP-4 peptides have been used for the delivery of different small fluorescent hydrophobic and charged molecules as well as doxorubicin on different cell lines including primary cell lines and challenging cell lines. VEPEP-4 peptides form stable particles with small aromatic molecules including doxorubicin. Effect of VEPEP-4 mediated delivery of doxorubicin has been investigated on cancer cell viability. […] The impact of carrier peptides to improve cellular uptake of small molecule drugs was estimated by following inhibition of proliferation of cancer cells.

The next test has as its system Cyclic peptide (PC4). The test is described as follows: Fluorescence titration of VEPEP-4 binding to cyclic peptide cargo. The method, then: as §1
(§4) VEPEP-4i (SEQ ID No: 1) and VEPEP-4j (SEQ ID No: 2) peptides form stable complexes with peptides. The binding of cargos to VEPEP-4 was monitored by fluorescence spectroscopy using the both intrinsic Trp group of VEPEP-4 (4 Trp-residues) and extrinsic fluorescently labeled cargoes (using Cy5 or FITC). Curve fitting reveal that VEPEP-4 strongly binds the different cargoes with dissociation constant in the nanomolar range (Table 1 and FIG. 1).

The subject of another test is HIV-1LAI. It is filed as cell-based. The note with it: 1LAI. The method, then: as §2
The anti-HIV activities of the peptides (PC4D, PC4S, PC6D, PC6S) and VEPEP-4/peptides complexes were assayed according to previously described method (Roisin et al, 2004). Phytohemagglutinin-P (PHA-P)-activated peripheral blood mononuclear cells (PBMC) treated by increasing concentrations of peptide (from 100 to 0.1 nM), one hour later, were infected with hundred 50% tissue culture infectious doses (TCID50) per 100,000 cells of the HIV-1-LAI or different resistant strains (Barre-Sinoussi et al, 1983). Viruses were amplified in vitro on PHA-P-activated PBMC. Viral stock was titrated using PHA-P-activated PBMC, and 50% TCID50 were calculated using Kärber's formula (Karber 1931). Samples were maintained throughout the culture, and cell supernatants were collected at day 7 post-infection and stored at −20 C. Viral replication was measured by quantifying RT activity in cell culture supernatants. In parallel, cytotoxicity of the compounds was evaluated in uninfected PHA-P-activated PBMC by colorimetric 3-(4-5 dimethylthiazol-2-yl)2,5 diphenyl tetrazolium bromite (MTT) assay on day 7 (Mossmann 1983). Experiments were performed in triplicate and repeated with another blood donor. […]

The subject of test [2] is MCF7. It is filed as cell-based, Human. The method, then:
as §2, §3

Test [3] concerns MCF7. Nature of the test: VEPEP-4 mediated delivery of fluorescently labelled peptide (fluorescence microscopy or FACS). The format is cell-based, Human. The note with it: MCF7, uptake of fluorescently labelled peptide cargo. The method, then: as §2
(§5) VEPEP-4 peptides have been used for the delivery of different peptides into different cell lines, including primary cell lines, stem cell lines and challenging cell lines. Peptide delivery was monitored using three approaches, fluorescence spectroscopy and monitoring biological responses (anti proliferation and anti viral responses).
(§6) 1—Fluorescently labelled peptide was visualized in the different cell lines using fluorescence microscopy or FACS sorting (Table 3). In most of the cell lines, the uptake of Cy-5 labelled peptides is more than 70% of the cells.

In a further test the test system is HS-68. Described as above. It is filed as cell-based, Human. The note with it: HS-68, uptake of fluorescently labelled peptide cargo. The method, then:
as §2, §5, §6

Another test deals with CEM-SS. The description is as above. It is filed as cell-based, Human. The note with it: uptake of fluorescently labelled peptide cargo. The method, then:
as §2, §5, §6

The test system of test [4] is Hela. The description is as above. The format is cell-based, Human. The note with it: uptake of fluorescently labelled peptide cargo. The method, then: as §2, §5, §6
The subject of another test is PBMC. The description is as above. The format is cell-based, Human. The note with it: uptake of fluorescently labelled peptide cargo. The method, then: as §2, §5, §6
Another test deals with U2OS. The test is described as above. The format is cell-based, Human. The note with it: uptake of fluorescently labelled peptide cargo. The method, then: as §2, §5, §6
A further test relates to Peptide (C4). Nature of the test: Fluorescence titration of VEPEP-4 binding to peptide cargo. The method, then: as §1, §4
The test system of a further test is MEF. Nature of the test: VEPEP-4 mediated delivery of fluorescently labelled peptide (fluorescence microscopy or FACS). The format is cell-based, Mouse. The note with it: uptake of fluorescently labelled peptide cargo. The method, then: as §2, §5, §6
Test [5] has as its system Hela. The test is described as follows: cells. The method, then: Cells were returned to the incubator for 24 hrs.
Effect of VEPEP-4 mediated delivery of doxorubicin has been investigated on cancer cell viability.

Description for Hela cells: (§7) Adherent HS68 fibroblasts, HeLa, PC3, CEM-SS, U20S, MCF-7, and HEK2 cell lines (from American Type Culture Collection (ATCC)), as well as MEF and PBMC, were cultured in Dulbecco's Modified Eagle's Medium supplemented with 2 mM glutamine, 1% antibiotics (streptomycin 10,000 μg/ml, penicillin, 10,000 IU/ml) and 10% (w/v) foetal calf serum (FCS), at 37° C. in a humidified atmosphere containing 5% CO2. Stock solutions of VEPEP-4/peptide particles were prepared by complexing 1 μM peptide with VEPEP-4 peptides at a molar ratio of 1/20 for 30 min at 37° C. […] 150,000 cells seeded in a 35 mm dish the day prior transfection, were grown to 60% confluence and overlaid with 200 μl of preformed complexes, incubated for 3-5 min, then 400 μl of DMEM were added. After 30 min. incubation at 37° C., 1 ml of fresh DMEM containing 16% foetal calf serum (FCS) was added in order to reach a final FCS concentration of 10%, without removing the overlay of VEPEP-4/peptide complexes. Cells were returned to the incubator for 24 hrs. For CDK2 derived peptides cell proliferation was monitored after 24 and 48 hrs. […] Data reported are an average of 3 or 4 distinct experiments.
Description for MCF7 cells: as §7

For the molecule `CSCC[C@H](NC(=O)[C@H](CCCNC(=N)N)NC(=O)[C@@H](NC(=O)[C@H](CCC(N)=O)NC(=O)[C@H](CCCCN)NC(=O)[C@@H](N)CCCCN)C(C)C)C(=O)N[C@@H](C)C(=O)N[C@@H](Cc1c[nH]cn1)C(=O)N[C@@H](CC(C)C)C(=O)N[C@H](C(=O)N[C@@H](CC(C)C)C(=O)N[C@H](C(=O)O)[C@@H](C)O)C(C)C` [C4, KKQVRMAHLVLT] (H-KKQVRMAHLVLT-OH; N-terminus and C-terminus assumed), the results for the half-maximal inhibitory concentration (IC50) in the test with Hela cells and with MCF7 cells were 50 ± 15 nM and 60 ± 12 nM, respectively. Also, the “concentration sufficient to block proliferation” value in the test on Hela cells (Hela, C4 delivered by VEPEP-4) is given as 100 nM; in the test with MCF7 cells (MCF7, C4 delivered by VEPEP-4), 100 nM.
As to `CC(=O)NCCC(=O)N[C@@H](Cc1c[nH]c2ccccc12)C(=O)N[C@@H](Cc1ccccc1)C(=O)N[C@@H](CCCNC(=N)N)C(=O)N[C@@H](CC(C)C)C(=O)N[C@@H](CO)C(=O)N[C@@H](CC(C)C)C(=O)N[C@@H](CCCNC(=N)N)C(=O)N[C@@H](Cc1ccccc1)C(=O)N[C@@H](Cc1c[nH]c2ccccc12)C(=O)N[C@@H](CCCNC(=N)N)C(=O)NCCS` [VEPEP-3j, X1WFRLSLRFWR] (Ac-[βAla]WFRLSLRFWR-Cysteamide), the Binding entry (in [1] (cargo Doxorubicin); in [1] (cargo FAM-guanosine); in [1] (cargo porphyrin); with Cyclic peptide (PC4); in the test with Peptide (C4)) was “yes” throughout. The Kd in [1] (cargo Doxorubicin) is 70 nM; in test [1] (cargo FAM-guanosine), 50 nM; in [1] (cargo porphyrin) it was 500 nM; on Cyclic peptide (PC4), 50 to 100 nM; on Peptide (C4) it was 10 to 20 nM. Moreover, the IC50 in the test with HEK2 is 300 nM; in the test with HIV-1LAI, 0.17 ± 0.07 nM; in the test with MCF7 [2], 200 nM; in the test on Hela [5] it was 800 nM. Moreover, the Efficiency in the test with MCF7 [3] is 65%; with HS-68, 80%; in the test on CEM-SS, 65%; in the test on Hela [4], 62%; in the test on PBMC it was 80%; in the test with U2OS it was 81%. Moreover, the Efficiency in the test with MEF was 70%.
